Assay results from ChEMBL document CHEMBL1765059, “Bunodosine 391: an analgesic acylamino acid from the venom of the sea anemone Bunodosoma cangicum” (J Nat Prod, 2011).
Calls of active or inactive are those of the source.

Key:
Format in all cases: functional, organism-based
[1] = species: Rattus norvegicus; assay: Antinociceptive activity against carrageenan-induced hyperalgesia in Wistar rat assessed as increase in pain threshold at 105 nm/paw, i.pl in presence of 1 ug/paw of opioid antagonist naloxone treated 30 mins before compound challenge
[2] = test system: Rattus norvegicus; assay: Antiinflammatory activity against carrageenan-induced edema in Wistar rat assessed as paw thickness at 105 nm/paw i.pl administered before 30 mins of carrageenan challenge
[3] = test system: Rattus norvegicus; assay: Antinociceptive activity against carrageenan-induced hyperalgesia in Wistar rat assessed as increase in pain threshold at 105 nm/paw, i.pl administered after 150 mins of carrageenan challenge by paw pressure test
[4] = test system: Rattus norvegicus; assay: Antinociceptive activity in i.pl dosed Wistar rat assessed as increase in pain threshold by paw pressure test
[5] = test system: Rattus norvegicus; assay: Antinociceptive activity against carrageenan-induced hyperalgesia in Wistar rat assessed as increase in pain threshold at 105 nm/paw, i.pl in presence of 5 mg/kg of nonselective serotonin antagonist methysergide treated 30 mins before compound challenge; design: dose 5 mg/kg

`O=C(Cc1c[nH]c2cc(Br)ccc12)N[C@@H](Cc1c[nH]cn1)C(=O)O` was tested, and the Activity [1] was “Active”, the inhibition [2] was “inactive” and the inhibition [3] was “Active”. For the same molecule, the Activity [4] was “Dose-dependent effect” and the Activity [5] was “inactive”.
